Data from patent US8822503B2, “2-pyridone compounds” (Taisho Pharmaceutical Co., Ltd, priority 2009, dated 2014).

Target: T1, human liver GK (Homo sapiens, UniProt P35557)
T1 construct: GST (glutathione S-transferase) (N); made in house; host or cells: E. coli
T1 sequence (P35557 1-466 isoform P35557-2): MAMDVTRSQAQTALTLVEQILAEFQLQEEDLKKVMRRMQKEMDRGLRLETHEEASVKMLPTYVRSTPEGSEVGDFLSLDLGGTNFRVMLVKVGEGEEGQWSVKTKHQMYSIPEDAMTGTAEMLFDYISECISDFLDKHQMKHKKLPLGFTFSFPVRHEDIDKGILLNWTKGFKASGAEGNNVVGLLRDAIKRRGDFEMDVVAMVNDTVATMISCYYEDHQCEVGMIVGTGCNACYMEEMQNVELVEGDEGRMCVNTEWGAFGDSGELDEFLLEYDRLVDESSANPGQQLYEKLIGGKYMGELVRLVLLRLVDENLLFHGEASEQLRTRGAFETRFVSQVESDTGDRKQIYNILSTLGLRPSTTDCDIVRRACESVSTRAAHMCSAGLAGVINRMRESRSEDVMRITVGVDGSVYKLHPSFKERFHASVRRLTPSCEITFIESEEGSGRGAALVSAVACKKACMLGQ
Experiment: GK activation test
Format: biochemical
Settings: test compound concentration needed to activate 50% of maximum activation ability; 4 mM 14C-labeled glucose, 2 mM ATP, room temperature, 20 minutes
Method in brief: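 GST-tagged human liver GK from E. coli (0.24 μg/well) with 4 mM 14C-glucose, 2 mM ATP in Hepes-KOH pH 7.1, KCl, MgCl2, DTT, 1% DMSO, 20 min room temperature. Labeled glucose 6-phosphate captured on anion resin, eluted and counted. EC50 = concentration giving half of maximal activation.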

Row | EC50 [nM] | Compound
1 | 10 to 500 | O=C1CC[C@H](/C=C(\c2ccc(Cl)cc2)c2ccc(-c3cn[nH]c3)c(=O)[nH]2)N1 [Example 4-359, 6-{(E)-1-(4-Chlorophenyl)-2-[(2R)-5-oxopyrrolidin-2-yl]ethenyl}-3-(1H-pyrazol-4-yl)pyridin-2(1H)-one]
2 | 3000 to 10000 | Cc1cc(C(C[C@H]2CCC(=O)N2)c2ccc(C3CC3)c(=O)[nH]2)ccc1C(F)(F)F (single isomer, unassigned) [Example 4-331]
3 | 500 to 3000 | CCOc1ccc(/C(=C\[C@H]2CCC(=O)N2)c2ccc(Cl)c(=O)[nH]2)cc1C [Example 4-50, 3-Chloro-6-{(E)-1-(4-ethoxy-3-methylphenyl)-2-[(2R)-5-oxopyrrolidin-2-yl]ethenyl}pyridin-2(1H)-one]
4 | 10 to 500 | CC(C)Oc1ccc(C(C[C@H]2CCC(=O)N2)c2ccc(C3CC3)c(=O)[nH]2)cc1Cl (single isomer, unassigned) [Example 4-322]
5 | 10 to 500 | CSc1ccc(/C(=C\[C@H]2CCC(=O)N2)c2ccc(C3CC3)c(=O)[nH]2)cc1 [Example 4-1, 3-Cyclopropyl-6-{(E)-1-[4-(methylsulfanyl)phenyl]-2-[(2R)-5-oxopyrrolidin-2-yl]ethenyl}pyridin-2(1H)-one]
6 | 500 to 3000 | CS(=O)(=O)Nc1ccc(/C(=C\[C@H]2CCC(=O)N2)c2ccc(Cl)c(=O)[nH]2)cc1 [Example 4-155, N-(4-{(E)-1-(5-Chloro-6-oxo-1,6-dihydropyridin-2-yl)-2-[(2R)-5-oxopyrrolidin-2-yl]ethenyl}phenyl)methanesulfonamide]
7 | 10 to 500 | CCC(=O)N1CC[C@H](/C=C(\c2ccc(C(C)(C)C)cc2)c2ccc(Cl)c(=O)[nH]2)C1 [Example 4-68, 6-{(E)-1-(4-tert-Butylphenyl)-2-[(3R)-1-propanoylpyrrolidin-3-yl]ethenyl}-3-chloropyridin-2(1H)-one]
8 | 3000 to 10000 | O=C1CC[C@H](CC(c2ccc(O)c(Cl)c2)c2ccc(C3CC3)c(=O)[nH]2)N1 (single isomer, unassigned) [Example 4-251]
9 | 10 to 500 | O=C1CC[C@H](/C=C(\c2ccc(OC(F)(F)F)cc2)c2ccc(C3CC3)c(=O)[nH]2)N1 [Example 4-126, 3-Cyclopropyl-6-{(E)-2-[(2R)-5-oxopyrrolidin-2-yl]-1-[4-(trifluoromethoxy)phenyl]ethenyl}pyridin-2(1H)-one]
10 | 10 to 500 | Cc1ccc(/C(=C\[C@H]2CCC(=O)N2)c2ccc(C3CC3)c(=O)[nH]2)c(F)c1 [Example 4-102, 3-Cyclopropyl-6-{(E)-1-(2-fluoro-4-methylphenyl)-2-[(2R)-5-oxopyrrolidin-2-yl]ethenyl}pyridin-2(1H)-one]
11 | 10 to 500 | O=C1CC[C@H](/C=C(\c2ccc(OCCF)cc2)c2ccc(C3CC3)c(=O)[nH]2)N1 [Example 4-287, 3-Cyclopropyl-6-{(E)-1-[4-(2-fluoroethoxy)phenyl]-2-[(2R)-5-oxopyrrolidin-2-yl]ethenyl}pyridin-2(1H)-one]
12 | 3000 to 10000 | O=C1CC[C@H](/C=C(\c2ccc(CO)cc2)c2ccc(Cl)c(=O)[nH]2)N1 [Example 4-277, 3-Chloro-6-{(E)-1-[4-(hydroxymethyl)phenyl]-2-[(2R)-5-oxopyrrolidin-2-yl]ethenyl}pyridin-2(1H)-one]
13 | 500 to 3000 | Cn1ccc(=O)n(C/C=C(\c2ccc(C(C)(C)C)cc2)c2ccc(Cl)c(=O)[nH]2)c1=O [Example 6-31, 3-[(2E)-3-(4-tert-Butylphenyl)-3-(5-chloro-6-oxo-1,6-dihydropyridin-2-yl)prop-2-en-1-yl]-1-methylpyrimidine-2,4(1H, 3H)-dione]
14 | 500 to 3000 | O=C1CC[C@H](/C=C(\c2ccc(Cl)cc2)c2ccc(CCCCO)c(=O)[nH]2)N1 [Example 4-199, 6-{(E)-1-(4-Chlorophenyl)-2-[(2R)-5-oxopyrrolidin-2-yl]ethenyl}-3-(4-hydroxybutyl)pyridin-2(1H)-one]
15 | 10 to 500 | CCSc1ccc(/C(=C\[C@H]2CCC(=O)N2)c2ccc(Cl)c(=O)[nH]2)cc1Cl [Example 4-27, 3-Chloro-6-{(E)-1-[3-chloro-4-(ethylsulfanyl)phenyl]-2-[(2R)-5-oxopyrrolidin-2-yl]ethenyl}pyridin-2(1H)-one]
16 | 10 to 500 | CCOc1ccc(C(C[C@H]2CCC(=O)N2)c2ccc(C3CC3)c(=O)[nH]2)cc1Cl (single isomer, unassigned) [Example 4-87]
17 | 3000 to 10000 | CC(C)(C)c1ccc(/C(=C\[C@@H]2CCC(=O)N2)c2ccc(Cl)c(=O)[nH]2)cc1 [Example 4-75, 6-{(E)-1-(4-tert-Butylphenyl)-2-[(2S)-5-oxopyrrolidin-2-yl]ethenyl}-3-chloropyridin-2(1H)-one]
18 | 3000 to 10000 | CC(C)(C)c1ccc(C(C[C@H]2CCC(=O)N2)c2ccc(C(F)(F)F)c(=O)[nH]2)cc1 (single isomer, unassigned) [Example 4-315]
19 | 500 to 3000 | CCOc1ccc(/C(=C\[C@H]2CCC(=O)N2)c2ccc(Cl)c(=O)[nH]2)cc1Cl [Example 4-2, 3-Chloro-6-{(E)-1-(3-chloro-4-ethoxyphenyl)-2-[(2R)-5-oxopyrrolidin-2-yl]ethenyl}pyridin-2(1H)-one]
20 | 10 to 500 | CCS(=O)(=O)N1CC[C@H](/C=C(\c2ccc(C(C)(C)C)cc2)c2ccc(Cl)c(=O)[nH]2)C1 [Example 4-72, 6-{(E)-1-(4-tert-Butylphenyl)-2-[(3R)-1-(ethylsulfonyl)pyrrolidin-3-yl]ethenyl}-3-chloropyridin-2(1H)-one]
21 | 10 to 500 | CCOc1ccc(/C(=C\[C@H]2CCC(=O)N2)c2ccc(C3CC3)c(=O)[nH]2)c(Cl)c1 [Example 4-286, 6-{(E)-1-(2-Chloro-4-ethoxyphenyl)-2-[(2R)-5-oxopyrrolidin-2-yl]ethenyl}-3-cyclopropylpyridin-2(1H)-one]

Further lines, the compound ahead of its results:

Row | Compound | EC50 [nM]
22 | Cc1ccc(C(CC2CCCC2)c2ccc(S(C)(=O)=O)c(Cl)c2)[nH]c1=O (stereo not shown) [Example 2-5, 6-{1-[3-Chloro-4-(methylsulfonyl)phenyl]-2-cyclopentylethyl}-3-methylpyridin-2(1H)-one] | 500 to 3000
23 | CCN(CC)CCCCOc1ccc(/C(=C\[C@H]2CCC(=O)N2)c2ccc(C3CC3)c(=O)[nH]2)cc1Cl [Example 4-62, 6-{(E)-1-{3-Chloro-4-[4-(diethylamino)butoxy]phenyl}-2-[(2R)-5-oxopyrrolidin-2-yl]ethenyl}-3-cyclopropylpyridin-2(1H)-one] | 10 to 500
24 | CSc1ccc(/C(=C\CCCO)c2ccc(C3CC3)c(=O)[nH]2)cc1 [Example 1-96, 3-Cyclopropyl-6-{(1E)-5-hydroxy-1-[4-(methylsulfanyl)phenyl]pent-1-en-1-yl}pyridin-2(1H)-one] | 500 to 3000
25 | CCCc1ccc(C(CC2CCCC2)c2ccc(SC)cc2)[nH]c1=O (stereo not shown) [Example 2-8, 6-{2-Cyclopentyl-1-[4-(methylsulfanyl)phenyl]ethyl}-3-propylpyridin-2(1H)-one] | 500 to 3000
26 | CS(=O)(=O)c1ccc(/C(=C\C2CCCC2)c2ccc(Cl)c(=O)[nH]2)cc1 [Example 1-2, 3-Chloro-6-{(E)-2-Cyclopentyl-1-[4-(methylsulfonyl)phenyl]ethenyl}pyridin-2(1H)-one] | 500 to 3000
27 | COc1ccc(/C(=C\C2CCOCC2)c2ccc(C3CC3)c(=O)[nH]2)cc1 [Example 1-51, 3-Cyclopropyl-6-[(E)-1-(4-methoxyphenyl)-2-(tetrahydro-2H-pyran-4-yl)ethenyl]pyridin-2(1H)-one] | 500 to 3000
28 | CCc1ccc(/C(=C/[C@H]2CCC(=O)C2)c2ccc(S(=O)(=O)CCCO)c(Cl)c2)[nH]c1=O [Example 1-76, 6-{(E)-1-{3-Chloro-4-[(3-hydroxypropyl)sulfonyl]phenyl}-2-[(1S)-3-oxocyclopentyl]ethenyl}-3-ethylpyridin-2(1H)-one] | 10 to 500
29 | CCc1ccc(/C(=C/C2CCCC2)c2ccc(OC)c(Cl)c2)[nH]c1=O [Example 1-16, 6-[(E)-1-(3-Chloro-4-methoxyphenyl)-2-cyclopentylethenyl]-3-ethylpyridin-2(1H)-one] | 10 to 500
30 | CSc1ccc(C(C[C@H]2CCC(=O)C2)c2ccc(C)c(=O)[nH]2)cc1 (stereo partly drawn) [Example 2-22, 3-Methyl-6-{1-[4-(methylsulfanyl)phenyl]-2-[(1R)-3-oxocyclopentyl]ethyl}pyridin-2(1H)-one] | 500 to 3000
31 | CCN(CC)CCCS(=O)(=O)c1ccc(/C(=C\C2CCCC2)c2ccc(C(F)(F)F)c(=O)[nH]2)cc1 [Example 1-41, 6-[(E)-2-Cyclopentyl-1-(4-{[3-(diethylamino)propyl]sulfonyl}phenyl)ethenyl]-3-(trifluoromethyl)pyridin-2(1H)-one] | 500 to 3000
32 | CCN1CC(Sc2ccc(/C(=C\C3CCCC3)c3ccc(C)c(=O)[nH]3)cc2)C1 [Example 1-31, 6-[(E)-2-Cyclopentyl-1-{4-[(1-ethylazetidin-3-yl)sulfanyl]phenyl}ethenyl]-3-methylpyridin-2(1H)-one] | 500 to 3000
33 | CC(C)c1ccc(C(CC2CCCC2)c2ccc(S(C)(=O)=O)cc2)[nH]c1=O (stereo not shown) [Example 2-12, 6-{2-Cyclopentyl-1-[4-(methylsulfonyl)phenyl]ethyl}-3-(propan-2-yl)pyridin-2(1H)-one] | 500 to 3000
34 | Cc1ccc(/C(=C/CC2CCCC2)c2ccc(SC3CC3)cc2)[nH]c1=O [Example 1-36, 6-{(1E)-3-Cyclopentyl-1-[4-(cyclopropylsulfanyl)phenyl]prop-1-en-1-yl}-3-methylpyridin-2(1H)-one] | 10 to 500
